# Measured values reported in patent US11629141B2, “Proteasome inhibitors and uses thereof” (CORNELL UNIVERSITY, priority 2015, dated 2023).
# How the values were obtained:
# [1] = target: T1, human immunoproteasome β5i (Homo sapiens, UniProt P28062); test: IC50 against chymotryptic β5i activity of human immunoproteasome (96-well plate, Ac-ANW-AMC); assay type: biochemical; details: for IC50: β5i, substrate Ac-ANW-AMC, read-out: IC50 Hu i-20S (Ac-ANW-AMC)
# T1 construct: purchased Boston Biochem Inc
# Method: A 96-well-plate assays were used to determine the IC50s against the chymotryptic β5 activities of the proteasomes. Both human constitutive proteasome and immunoproteasome were purchased from Boston Biochem Inc. 1 μL of 100× compound in DMSO at designated concentrations were spotted at the bottom of the wells. DMSO was used as a control. […] The hydrolysis of the substrate over time in each well was monitored at excitation 360 nm, emission 460 nm for 90 minutes. IC50s were estimated by fitting the velocities of hydrolysis against compound concentrations using PRISM. […] SDS (0.02%) was used as activator, and 0.01% BSA was used in the reaction buffer.
# [2] = target: T2, human constitutive proteasome β5c (Homo sapiens, UniProt P28074); test: IC50 against chymotryptic β5c activity of human constitutive proteasome (96-well plate, Suc-LLVY-AMC); assay type: biochemical; details: for IC50: β5c, substrate Suc-LLVY-AMC, read-out: IC50 Hu c-20S (Suc-LLVY-AMC)
# T2 construct: purchased Boston Biochem Inc
# Method: A 96-well-plate assays were used to determine the IC50s against the chymotryptic β5 activities of the proteasomes. Both human constitutive proteasome and immunoproteasome were purchased from Boston Biochem Inc. 1 μL of 100× compound in DMSO at designated concentrations were spotted at the bottom of the wells. DMSO was used as a control. Final concentrations of the inhibitors were from 100 μM to 0.098 μM. The hydrolysis of the substrate over time in each well was monitored at excitation 360 nm, emission 460 nm for 90 minutes. IC50s were estimated by fitting the velocities of hydrolysis against compound concentrations using PRISM. […] Suc-LLVY-AMC was used for βc at final concentration of 25 μM, and Ac-ANW-AMC for b5i at final concentration of 15 μM. SDS (0.02%) was used as activator, and 0.01% BSA was used in the reaction buffer.
# The foregoing features of these AsnEDA encouraged a further round of SAR studies (Table 5) based on varying the carboxylic acid at the ethylenediamine, the N-cap at the Asn, and the side chain of the Asn, based on PKS21004. All compounds listed in the Table 5 were synthesized as described in Examples 6-77. All final compounds were confirmed by NMR and HRMS. IC50s of all compounds against β5i and β5c (Table 5), β1i, β2i, β1c and β2c were determined following a reported method (Lin et al., “N,C-Capped Dipeptides With Selectivity for Mycobacterial Proteasome Over Human Proteasomes: Role of S3 and S1Binding Pockets,” J Am Chem Soc. 135:9968-9971 (2013), which is hereby incorporated by reference in its entirety). […] The [1,1′-biphenyl]-3-carboxamide of PKS21004 was then modified with the following substituents: 4′-fluoro (PKS21026), 4′-cyano (PKS21028), 4-fluoro (PKS21196), 4,3′-difluoro (PKS21195) and 4,2′-difluoro (PKS21187).
# Plasmodium falciparum = test: Growth of Plasmodium falciparum in red blood cells (SYBR Green, 72 hours); assay type: cell-based; details: Erythrocyte, P.f. 3D7, growth in red blood cells, read-out: EC50 (nM) (P.f.)
# Method: Continuous in vitro cultures of Plasmodium falciparum: were maintained in human red blood cells (RBC) diluted to a hematocrit of 5% in RPMI 1640 medium with HEPES and Hypoxanthine and completed with 0.5% Albumax II (Invitrogen), 0.25% sodium bicarbonate, and 0.1 mg/ml gentamicin. Parasites were incubated at 37° C. in a gas mixture of 5% oxygen, 5% carbon dioxide, and 90% nitrogen.
# Parasite sensitivity to novel compounds were determined using a SYBR Green (Invitrogen S1046) drug assay protocol. P. falciparum of various clinic stains were cultured with compounds at concentrations in a series of dilution in a clear, sterile 96-well plate for 72 hours. Subsequently, 150 μl of the cultures were transferred to a black 96-well plate and placed in the freezer for red blood cell lysis. The plates were thawed and suspended in a Sybr Green Lysis buffer. GraphPad Prism was used to analyze the raw data collected […]. Drug concentrations were converted to logarithms, normalized, and then curve fitted by non-linear regression to obtain EC50 values.
# Plasmodium falciparum: parasites were cultured in human red cells. Drug assays were run in 96 well plates at a total volume of 200 μl. Assays were set up at a starting parasitemia (percent of infected red cells) of 0.5%. Test compounds were plated at concentrations of 2778 nM to 0.4 nM. The test plates were grown under standard low oxygen conditions at 37° C. for 72 hours. At that time the plates were prepared for growth determination, first the plates were frozen and thawed to lyse the red blood cells, 150 μl of the lysed thawed culture was transferred to a black 96 well plate, and mixed in a lysis buffer with SYBR green DNA dye. The fluorescence of each well was recorded in a plate reader with excitation wavelength 490 nm and emission wavelength 530 nm and normalized relative to DMSO control. The EC50s were determined using Prism software.
Structure (SMILES),IC50 [1],IC50 [2],EC50 (Plasmodium falciparum),improved potency against β5i ([1]; relative to PKS3080),selectivity for β5i over β5c [1],inhibitory activity against β5i (in words) [1],inhibitory activity against β5c (in words) [2]
CC(C)(C)NC(=O)C[C@H](NC(=O)CCc1ccccc1)C(=O)NCCNC(=O)c1cccc(-c2ccc(C#N)cc2)c1 [PKS21028],2.06 µM,7.25 µM,,,,,
CC(C)(C)NC(=O)C[C@H](NC(=O)CCc1ccccc1)C(=O)NCCNC(=O)c1cc(-c2ccccc2F)ccc1F [PKS21187],0.016 µM,0.36 µM,,,~20 fold,,
CC(C)(C)NC(=O)C[C@H](NC(=O)CCc1ccccc1)C(=O)NCCNC(=O)c1cc(-c2cccc(F)c2)ccc1F [PKS21195],0.059 µM,1.94 µM,,,,,
CC(C)(C)NC(=O)C[C@H](NC(=O)CCc1ccccc1)C(=O)NCCNC(=O)c1cc(-c2ccccc2)ccc1F [PKS21196],0.044 µM,0.818 µM,,,,,
Cc1cc(C(=O)N[C@@H](CC(=O)NC(C)(C)C)C(=O)NCCNC(=O)c2cc(-c3ccccc3F)ccc2F)no1 [PKS21208],0.027 µM,1.04 µM,,,,,
Cc1ccc(S(=O)(=O)N[C@@H](CC(=O)NC(C)(C)C)C(=O)NCCNC(=O)c2cc(-c3cccc(F)c3)ccc2F)cc1 [PKS21228],0.012 µM,0.42 µM,,,,,
CC(C)(C)NC(=O)C[C@H](NC(=O)CCc1ccc(F)cc1)C(=O)NCCNC(=O)c1ccccn1 [PKS21254],7.77 µM,57.4 µM,,,,,
CC(C)(C)NC(=O)C[C@H](NC(=O)CCc1ccc(F)cc1)C(=O)NCCNC(=O)c1ccccc1F [PKS21255],0.74 µM,3.64 µM,,,,,
CC(C)(C)OC(=O)NCC(=O)NCCNC(=O)c1cc(-c2ccccc2F)ccc1F [PKS21276],24.3 µM,> 100 µM,,,,abolished the inhibitory activities,abolished the inhibitory activities
O=C(CCc1ccc(F)cc1)N[C@@H](CC(=O)NC1(C(F)(F)F)CC1)C(=O)NCCNC(=O)c1cccc(-c2ccccc2)c1 [PKS21278],0.08 µM,0.165 µM,,,,,
CC(C)(C)OC(=O)N[C@@H](CC(N)=O)C(=O)NCCNC(=O)c1cc(-c2ccccc2F)ccc1F [PKS21281],> 100 µM,> 100 µM,,,,abolished the inhibitory activities,abolished the inhibitory activities
Cc1ccc(S(=O)(=O)N[C@@H](CC(N)=O)C(=O)NCCNC(=O)c2cc(-c3ccccc3F)ccc2F)cc1 [PKS21288],4.14 µM,> 100 µM,,,,eliminated inhibitory activity,eliminated inhibitory activity
Cc1ccc(S(=O)(=O)NCC(=O)NCCNC(=O)c2cc(-c3ccccc3F)ccc2F)cc1 [PKS21289],40.3 µM,60.8 µM,,,,eliminated inhibitory activity,eliminated inhibitory activity
Cc1cc(C(=O)N[C@@H](CC(=O)NC(C)(C)C)C(=O)NCCNC(=O)c2cccc(-n3cccn3)c2)no1 [TDI4258],,,29 nM,,,,

# Second part, the compound after the results:
IC50 [1],IC50 [2],EC50 (Plasmodium falciparum),improved potency against β5i ([1]; relative to PKS3080),selectivity for β5i over β5c [1],inhibitory activity against β5i (in words) [1],inhibitory activity against β5c (in words) [2],Structure (SMILES)
2.35 µM,14.6 µM,364 nM,,,,,CC(CNC(=O)c1cccc(-c2ccccc2)c1)NC(=O)[C@H](CC(=O)NC(C)(C)C)NC(=O)CCc1ccccc1 (mixture of isomers) [PKS21018]
0.37 µM,1.22 µM,23 nM,,,,,CC(C)(C)NC(=O)C[C@H](NC(=O)CCc1ccccc1)C(=O)NCCNC(=O)c1cccc2ccccc12 [PKS3080]
0.276 µM,3.46 µM,30 nM,,,,,CC(C)(C)NC(=O)C[C@H](NC(=O)CCc1ccccc1)C(=O)NCCCNC(=O)c1cccc(-c2ccccc2)c1 [PKS21019]
0.284 µM,3.6 µM,320 nM,3 fold,26 fold,,,CC(C)(C)NC(=O)C[C@H](NC(=O)CCc1ccccc1)C(=O)NCCNC(=O)c1ccc2ccccc2c1 [PKS21025]
0.39 µM,0.068 µM,,,,,,CC(C)(C)NC(=O)CC[C@H](NC(=O)CCc1ccccc1)C(=O)NCCNC(=O)c1cccc(-c2ccccc2)c1 [PKS21030]
0.125 µM,2.76 µM,,,,,,CC(C)(C)NC(=O)C[C@H](NC(=O)CCc1ccccc1)C(=O)NCCNC(=O)c1cc(-c2ccccc2)ccn1 [PKS21186]
0.269 µM,11.8 µM,,,,,,Cc1cc(C(=O)N[C@@H](CC(=O)NC(C)(C)C)C(=O)NCCNC(=O)c2cc(-c3cccc(F)c3)ccc2F)no1 [PKS21225]
65.6 µM,> 100 µM,,,,,,Cc1cc(C(=O)N[C@@H](CC(=O)NC(C)(C)C)C(=O)NCCNC(=O)c2ccccn2)no1 [PKS21250]
6.34 µM,39 µM,,,,,,Cc1cc(C(=O)N[C@@H](CC(=O)NC(C)(C)C)C(=O)NCCNC(=O)c2ccccc2F)no1 [PKS21251]
2.41 µM,22.7 µM,,,,,,CC(C)(C)NC(=O)C[C@H](NC(=O)CCc1ccc(F)cc1)C(=O)NCCNC(=O)c1cccc2cccnc12 [PKS21258]
0.158 µM,2.24 µM,,,,,,CC(C)(C)NC(=O)C[C@H](NC(=O)CCc1ccc(F)cc1)C(=O)NCCNC(=O)c1ccc(F)c2ccccc12 [PKS21259]
0.112 µM,3.65 µM,,,36 fold,modestly potent,,CC(C)(C)NC(=O)C[C@H](NC(=O)OC(C)(C)C)C(=O)NCCNC(=O)c1cc(-c2ccccc2F)ccc1F [PKS21277]
0.037 µM,0.114 µM,,,,,,O=C(CCc1ccc(F)cc1)N[C@@H](CC(=O)NC1(C(F)(F)F)CC1)C(=O)NCCNC(=O)c1cc(-c2ccccc2F)ccc1F [PKS21279]
33.2 µM,> 100 µM,,,,abolished the inhibitory activities,abolished the inhibitory activities,C[C@H](NC(=O)OC(C)(C)C)C(=O)NCCNC(=O)c1cc(-c2ccccc2F)ccc1F [PKS21280]
0.069 µM,1.29 µM,,,,,,Cc1ccc(S(=O)(=O)N[C@@H](CC(=O)NC(C)(C)C)C(=O)NCCNC(=O)c2cccc(-c3cc[nH]n3)c2)cc1 [PKS21282]
0.626 µM,3.09 µM,,,,,,CC(C)(C)NC(=O)C[C@H](N)C(=O)NCCNC(=O)c1cc(-c2ccccc2F)ccc1F [PKS21284]
> 100 µM,> 100 µM,,,,eliminated inhibitory activity,eliminated inhibitory activity,Cc1ccc(S(=O)(=O)N[C@@H](C)C(=O)NCCNC(=O)c2cc(-c3ccccc3F)ccc2F)cc1 [PKS21290]
0.015 µM,0.96 µM,,,,,,CC(C)(C)NC(=O)C[C@H](NS(=O)(=O)C1CC1)C(=O)NCCNC(=O)c1cc(-c2ccccc2F)ccc1F [PKS21293]
0.62 µM,13.3 µM,,,,,,CC(=O)N[C@@H](CC(=O)NC(C)(C)C)C(=O)NCCNC(=O)c1cc(-c2ccccc2F)ccc1F [PKS21294]
0.129 µM,2.39 µM,,,,,,Cc1ccc(S(=O)(=O)N[C@@H](CC(=O)NC(C)(C)C)C(=O)NCCNC(=O)c2cccc(N3CCNC3=O)c2)cc1 [PKS21295]
